This note sets out measurements from PMC10528299, “Targeting FAK/PYK2 with SJP1602 for Anti-Tumor Activity in Triple-Negative Breast Cancer” (Current Issues in Molecular Biology, 2023).

The IC50 is the concentration needed to halve the response being measured.

Assay [1] relates to 4T1. The assay is described as follows: 3D spheroid assay 4T1. The format is cell-based. The following applies: Mus musculus, 96 h; 4T1, 4 days treatment; read-out: IC50 3D spheroid cell viability. The procedure: Breast cancer cell lines were cultured in medium with or without 2% Matrigel (Corning, NY, USA) for 3 days in each 96-well ultra-low attachment round plate to form a single spheroid at a density of 3 × 10^3 cells/well. SJP1602 was dissolved in DMSO and treated for 4 days at concentrations ranging from 200 nM to 20 μM. Cell viability was quantified according to the manufacturer’s instructions using a CellTiter-Glo 3D cell viability assay (Promega, Madison, WI, USA). Luminescence was measured using the Tecan Spark 10M.

Assay [2] deals with T1, LKB1(h) (Homo sapiens, UniProt Q15831).
T1 construct: purchased Eurofins KinaseProfiler
T1 sequence (Q15831 1-433): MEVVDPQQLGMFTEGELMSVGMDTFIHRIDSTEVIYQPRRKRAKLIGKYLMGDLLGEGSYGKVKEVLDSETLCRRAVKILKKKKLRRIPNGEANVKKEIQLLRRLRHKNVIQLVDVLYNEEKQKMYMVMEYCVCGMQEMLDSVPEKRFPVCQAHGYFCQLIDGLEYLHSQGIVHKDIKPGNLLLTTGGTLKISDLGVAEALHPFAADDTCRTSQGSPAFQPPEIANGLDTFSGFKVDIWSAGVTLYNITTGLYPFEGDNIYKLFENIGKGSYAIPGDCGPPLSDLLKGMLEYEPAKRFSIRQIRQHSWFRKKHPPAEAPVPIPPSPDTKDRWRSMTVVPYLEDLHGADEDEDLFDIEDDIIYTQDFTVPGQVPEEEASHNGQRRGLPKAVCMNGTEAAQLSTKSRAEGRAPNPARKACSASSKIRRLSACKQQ
T1 sequence (Q7RTN6 1-431 partner): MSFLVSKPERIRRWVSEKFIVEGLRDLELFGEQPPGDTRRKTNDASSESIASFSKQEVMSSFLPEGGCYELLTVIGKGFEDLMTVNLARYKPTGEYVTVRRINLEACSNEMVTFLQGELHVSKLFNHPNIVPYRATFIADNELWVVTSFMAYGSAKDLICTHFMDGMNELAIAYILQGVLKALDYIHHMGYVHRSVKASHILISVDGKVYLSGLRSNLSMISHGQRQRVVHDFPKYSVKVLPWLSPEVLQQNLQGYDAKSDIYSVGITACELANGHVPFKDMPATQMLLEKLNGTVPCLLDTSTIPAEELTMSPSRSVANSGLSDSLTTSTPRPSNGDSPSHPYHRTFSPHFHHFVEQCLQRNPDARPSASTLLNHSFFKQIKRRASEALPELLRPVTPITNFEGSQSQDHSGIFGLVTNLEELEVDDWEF
T1 sequence (Q9Y376 1-341 partner): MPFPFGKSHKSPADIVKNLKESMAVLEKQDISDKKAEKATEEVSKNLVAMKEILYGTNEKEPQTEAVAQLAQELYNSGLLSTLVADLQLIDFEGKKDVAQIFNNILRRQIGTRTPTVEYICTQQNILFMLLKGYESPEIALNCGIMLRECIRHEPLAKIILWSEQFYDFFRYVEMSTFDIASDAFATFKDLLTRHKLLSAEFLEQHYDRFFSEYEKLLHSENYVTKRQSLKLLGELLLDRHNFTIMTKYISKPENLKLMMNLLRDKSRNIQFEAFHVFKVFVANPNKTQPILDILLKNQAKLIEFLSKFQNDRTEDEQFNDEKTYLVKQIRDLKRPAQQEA
The assay is described as follows: Eurofins kinase profiling. The conditions noted are these: read-out: residual kinase activity LKB1(h). Format: biochemical. The procedure: (§1) The kinase profiling analysis was performed at Eurofins (Poitiers, France). A total of 110 kinase assays were carried out according to Eurofins’ standard protocols. For protein kinase assays, the kinase activity was measured using Eurofins’ KinaseProfiler radiometric assay. In this assay, a panel of kinases was incubated with the test compound SJP1602 at a concentration of 1 µM, and the kinase activity was determined using radiolabeled phosphate as a substrate. Lipid and atypical kinase assays were conducted using Eurofins’ homogeneous time-resolved fluorescence assay. The same panel of kinases was incubated with SJP1602 at a concentration of 1 µM, and the activity of lipid and atypical kinases was measured using this assay.

In assay [3] the target is T2, p70S6K(h) (Homo sapiens, UniProt P23443).
T2 construct: purchased Eurofins KinaseProfiler
The assay is described as follows: Eurofins kinase profiling. Format: biochemical. The following applies: read-out: residual kinase activity p70S6K(h). The procedure: as §1

Assay [4] has as its target T3, FAK(h) (Homo sapiens, UniProt Q05397).
T3 construct: purchased Eurofins KinaseProfiler
The assay is described as follows: Eurofins kinase profiling. The format is biochemical. The conditions noted are these: read-out: residual kinase activity FAK(h). As for the experimental part: as §1

Assay [5] concerns the target T4, PKCη(h) (Homo sapiens, UniProt P24723).
T4 construct: purchased Eurofins KinaseProfiler
The assay is described as follows: Eurofins kinase profiling. Format: biochemical. The following applies: read-out: residual kinase activity PKCη(h). As for the experimental part: as §1

Assay [6] concerns the target T5, TAK1(h) (Homo sapiens, UniProt O43318).
T5 construct: purchased Eurofins KinaseProfiler
T5 sequence (O43318 1-303 limits assumed): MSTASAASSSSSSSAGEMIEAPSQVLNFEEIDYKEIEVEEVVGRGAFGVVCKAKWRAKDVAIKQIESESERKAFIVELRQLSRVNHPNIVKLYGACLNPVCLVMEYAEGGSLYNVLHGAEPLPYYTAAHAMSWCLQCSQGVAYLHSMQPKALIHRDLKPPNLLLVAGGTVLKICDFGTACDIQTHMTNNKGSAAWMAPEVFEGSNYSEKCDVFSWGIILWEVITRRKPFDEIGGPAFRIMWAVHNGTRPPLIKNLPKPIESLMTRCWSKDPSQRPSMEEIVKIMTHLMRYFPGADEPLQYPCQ
The assay is described as follows: Eurofins kinase profiling. The format is biochemical. The following applies: read-out: residual kinase activity TAK1(h). As for the experimental part: as §1

T3 sequence (Q05397 whole entry): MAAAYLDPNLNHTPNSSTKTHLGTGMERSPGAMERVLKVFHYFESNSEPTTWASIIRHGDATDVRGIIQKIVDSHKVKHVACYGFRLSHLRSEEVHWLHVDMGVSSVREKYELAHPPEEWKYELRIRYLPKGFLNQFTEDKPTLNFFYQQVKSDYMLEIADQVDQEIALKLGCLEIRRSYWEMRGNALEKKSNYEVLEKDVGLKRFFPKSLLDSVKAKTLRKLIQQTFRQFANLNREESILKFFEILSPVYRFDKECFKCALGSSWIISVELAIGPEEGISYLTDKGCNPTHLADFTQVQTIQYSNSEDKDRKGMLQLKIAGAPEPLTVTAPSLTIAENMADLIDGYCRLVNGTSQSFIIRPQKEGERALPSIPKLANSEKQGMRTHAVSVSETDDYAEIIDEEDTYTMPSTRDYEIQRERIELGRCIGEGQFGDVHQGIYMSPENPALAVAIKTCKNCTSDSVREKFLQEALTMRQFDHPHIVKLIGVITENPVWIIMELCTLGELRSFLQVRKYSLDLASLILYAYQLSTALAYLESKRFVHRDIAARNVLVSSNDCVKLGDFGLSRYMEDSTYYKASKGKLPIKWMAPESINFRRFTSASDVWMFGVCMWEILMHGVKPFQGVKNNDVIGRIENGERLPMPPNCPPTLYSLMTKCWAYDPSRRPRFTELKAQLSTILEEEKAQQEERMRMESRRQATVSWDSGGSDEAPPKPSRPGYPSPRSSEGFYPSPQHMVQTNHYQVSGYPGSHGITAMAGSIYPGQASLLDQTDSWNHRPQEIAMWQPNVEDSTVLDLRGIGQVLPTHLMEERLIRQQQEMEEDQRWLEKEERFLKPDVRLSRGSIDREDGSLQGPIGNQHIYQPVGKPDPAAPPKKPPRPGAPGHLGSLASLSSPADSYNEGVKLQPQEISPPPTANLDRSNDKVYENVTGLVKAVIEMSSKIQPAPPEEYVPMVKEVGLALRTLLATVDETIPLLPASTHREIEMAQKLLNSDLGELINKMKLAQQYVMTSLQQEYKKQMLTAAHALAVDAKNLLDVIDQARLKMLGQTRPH
T4 sequence (P24723 whole entry): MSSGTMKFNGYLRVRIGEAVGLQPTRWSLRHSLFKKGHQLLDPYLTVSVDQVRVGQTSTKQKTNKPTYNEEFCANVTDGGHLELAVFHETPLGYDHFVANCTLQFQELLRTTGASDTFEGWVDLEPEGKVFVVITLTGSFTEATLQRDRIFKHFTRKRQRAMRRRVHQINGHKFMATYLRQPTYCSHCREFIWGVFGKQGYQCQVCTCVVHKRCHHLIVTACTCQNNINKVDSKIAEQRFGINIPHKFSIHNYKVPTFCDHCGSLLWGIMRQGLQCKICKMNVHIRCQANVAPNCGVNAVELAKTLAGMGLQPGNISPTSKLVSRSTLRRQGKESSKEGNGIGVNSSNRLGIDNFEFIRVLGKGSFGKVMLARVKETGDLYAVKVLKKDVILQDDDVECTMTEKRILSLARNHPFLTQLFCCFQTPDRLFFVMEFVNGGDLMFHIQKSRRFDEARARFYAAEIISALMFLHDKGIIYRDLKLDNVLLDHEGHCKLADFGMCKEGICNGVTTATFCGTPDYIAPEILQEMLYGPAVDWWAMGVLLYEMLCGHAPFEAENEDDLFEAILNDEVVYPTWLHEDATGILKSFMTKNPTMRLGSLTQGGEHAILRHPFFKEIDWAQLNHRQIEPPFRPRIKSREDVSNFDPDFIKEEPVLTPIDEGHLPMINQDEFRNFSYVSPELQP
T2 sequence (P23443 whole entry): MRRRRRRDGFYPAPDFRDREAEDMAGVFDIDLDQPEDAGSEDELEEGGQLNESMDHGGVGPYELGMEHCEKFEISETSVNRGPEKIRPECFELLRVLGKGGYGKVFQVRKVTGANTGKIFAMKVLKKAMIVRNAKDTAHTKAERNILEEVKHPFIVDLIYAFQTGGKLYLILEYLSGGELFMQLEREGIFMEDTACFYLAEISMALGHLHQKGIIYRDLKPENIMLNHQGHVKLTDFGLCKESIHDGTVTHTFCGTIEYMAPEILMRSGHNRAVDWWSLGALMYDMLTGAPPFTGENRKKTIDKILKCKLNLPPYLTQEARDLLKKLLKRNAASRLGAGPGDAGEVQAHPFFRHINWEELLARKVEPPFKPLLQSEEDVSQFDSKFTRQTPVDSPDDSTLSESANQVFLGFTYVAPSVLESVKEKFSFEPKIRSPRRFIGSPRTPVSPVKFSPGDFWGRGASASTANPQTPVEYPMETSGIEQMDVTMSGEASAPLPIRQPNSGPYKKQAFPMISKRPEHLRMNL

For `CONC(=O)c1ccccc1Nc1cc(Nc2cc(C)nn2C(C)C)ncc1Cl` [GSK2256098], in assay [1], the IC50 is more than 10000 nM. The remaining activity at 1 µM in assay [2] is 98%; in assay [3], 69%; in assay [4] it was -1%; in assay [5], 97%; in assay [6], 95%.
For `CNC(=O)c1cccc(C)c1Nc1nc(Nc2ccc(N3CCN(C4C5CC6CC4CC(O)(C6)C5)CC3)cc2OC)ncc1C(F)(F)F` (stereo not drawn) [SJP1602, 2-((2-((4-(4-((2s,5r)-5-hydroxyadamantan-2-yl)piperazin-1-yl)-2-methoxyphenyl)amino)-5-(trifluoromethyl)pyrimidin-4-yl)amino)-N,3-dimethylbenzamide], in assay [1], the IC50 turned out to be 184 nM. Further, the remaining activity at 1 µM in assay [2] amounted to 96%; in assay [3] it was 124%; in assay [4], 3%; in assay [5], 95%; in assay [6], 113%.
Turning to `CNC(=O)c1ccc(Nc2ncc(C(F)(F)F)c(NCc3nccnc3N(C)S(C)(=O)=O)n2)cc1` [VS-6063, Defactinib], in assay [1], the IC50 was 1190 nM. For the same molecule, the remaining activity at 1 µM in assay [2] is 89%; in assay [3] it was 98%; in assay [4], -6%; in assay [5] it was 104%; in assay [6], 71%.
